Literature values in US20240285565A1, “USE OF (S)-3-AMINO-4-(DIFLUOROMETHYLENYL)CYCLOPENT-1-ENE-1-CARBOXYLIC ACID IN THE TREATMENT OF DIABETES AND PRE-DIABETES” (Ovid Therapeutics Inc., priority 2023, published 2024).

Columns and labels:
[1] = target: T1, OAT (Homo sapiens, UniProt P04181)
T1 sequence (P04181 26-439): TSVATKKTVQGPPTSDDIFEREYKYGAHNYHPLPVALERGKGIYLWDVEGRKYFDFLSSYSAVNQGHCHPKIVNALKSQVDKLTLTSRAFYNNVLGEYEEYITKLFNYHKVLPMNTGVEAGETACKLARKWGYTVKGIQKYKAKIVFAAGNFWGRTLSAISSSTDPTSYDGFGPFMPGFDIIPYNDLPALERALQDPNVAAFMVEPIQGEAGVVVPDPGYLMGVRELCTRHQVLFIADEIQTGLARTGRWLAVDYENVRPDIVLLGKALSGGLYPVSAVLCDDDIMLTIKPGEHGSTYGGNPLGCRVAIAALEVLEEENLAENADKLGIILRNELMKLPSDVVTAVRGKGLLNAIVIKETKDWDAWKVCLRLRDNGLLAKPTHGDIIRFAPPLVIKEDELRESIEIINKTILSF

[2] = target: alanine aminotransferase (Ala-AT)
[3] = target: aspartate aminotransferase (Asp-AT)

N[C@H]1C=C(C(=O)O)CC1=C(F)F [(S)-3-amino-4-(difluoromethylenyl)cyclopent-1-ene-1-carboxylic acid]
Kinact/K1 (OAT) [1]: 7.6 mM⁻¹ min⁻¹ | times more efficient an inactivator of OAT than CPP-115 ([1]; ratio of Kinact/K1 relative to CPP-115): 9.0 times | IC50 ([2]; reversible inhibition): > 4 mM | IC50 ([3]; reversible inhibition): > 4 mM

N[C@H]1C[C@@H](C(=O)O)CC1=C(F)F [CPP-115, (1S,3S)-3-amino+difluoromethylenyl-1-cyclopentanoic acid, reference compound]
Ki ([1]; read-out: K1 (OAT)): 116 µM | inactivation or inhibition of Ala-AT ([2]; result in words): not to inactivate or inhibit | inactivation or inhibition of Asp-AT ([3]; result in words): not to inactivate or inhibit
